Data published in EP0856511B1, “Calcium salt of indomethacin pentahydrate and its preparation” (Promindus (Actions Promotionnelles dans l'Industrie et le …, priority 1997, dated 1998).

What was measured:
[1] = Effective dose 50 % (DE50) per os in the rat; format: in vivo
Source text: (§1) En effet, les comparaisons respectives des DE50 (dose efficace 50 %) et DL50 (dose léthale 50 %) per os, chez le rat, de ladite indométacine calcique pentahydratée et de ladite indométacine libre sont nettement à l'avantage de ladite indométacine calcique.

[2] = Lethal dose 50 % (DL50) per os in the rat; format: in vivo
Source text: as §1

[3] = Solubility description in water and organic solvents; format: physicochemical
[4] = in vivo

Compound | ED50 ([1]; po, dose efficace 50 %, per os, rat) [mg/kg] | LD50 ([2]; in vivo, po, dose léthale 50 %, per os, rat) [mg/kg] | activité pharmacologique ([1]; compared with the acid form) | DE50 ([1]; dose efficace 50 %, per os, rat) | DL50 ([2]; dose léthale 50 %, per os, rat) [mg/kg] | toxicité par voie orale ([2]; par voie orale, compared with the acid form) | Index thérapeutique : DL50/DE50 ([2]; per os, rat, ratio DL50/DE50) | solubilité dans l'acétonitrile [3] | solubilité dans l'eau [3] | solubilité dans l'éther [3] | solubilité dans le chloroforme ([3]; chloroforme) | solubilité dans le diméthylformamide ([3]; diméthylformamide) | solubilité dans le tétrahydrofuranne ([3]; tétrahydrofuranne) | tolérance locale par voie rectale [4]
COc1ccc2c(c1)c(CC(=O)O)c(C)n2C(=O)c1ccc(Cl)cc1 [Indométacine, acide 1-(p-chlorobenzoyl)-5-méthoxy-2-méthylindole-3-acétique, reference compound] | 3 | 28 |  |  |  |  |  |  |  |  |  |  |  | 
indométacine calcique pentahydratée |  |  | équivalente | 2,5 mg/kg | 45 | une toxicité diminuée | 18 | pratiquement insoluble | pratiquement insoluble | pratiquement insoluble | pratiquement insoluble | facilement soluble | soluble | une meilleure tolérance locale
